Holding throughout (format): in vivo
The test system of experiment [1] is Triticum aestivum (TRZAS). As to the kind of experiment: Post-emergence action, greenhouse pot test, visual scoring. Here is the method:
(§1) Seeds or rhizome pieces of mono- and dicotyledonous harmful and useful plants were placed in peat pots (diameter 4 cm) filled with sandy loam and then covered with soil. The pots were kept in a greenhouse under optimum conditions. In addition, harmful plants encountered in paddy rice cultivation were cultivated in pots with a water level 2 cm above the soil surface.
(§2) About three weeks after the start of the cultivation, the test plants were treated at the 2- to 3-leaf stage. The herbicides, formulated as powder or liquid concentrates, were, either alone or in the combinations according to the invention, sprayed in various dosages on to the green parts of the plants using an application rate of 600 l of water/ha (converted). For further cultivation of the plants, the pots were then again kept under optimum conditions in a greenhouse.
(§3) The visual scoring of the herbicidal effects was carried out in intervals up to 21 days after the treatment. Scoring was carried out in percent in comparison to the untreated control plants. 0%=no herbicidal activity, 100%=complete herbicidal activity=complete kill.
(§4) The percentages from the treatments with the herbicides alone (=individual application) and with the combinations according to the invention (=mixtures) were employed to calculate interactions using the method of Colby. When the observed efficacies of the mixtures exceed the formal sum of the values of the tests with individual applications, they also exceed the expected value according to Colby, which is calculated using the formula below (cf. S. R. Colby; in Weeds 15 (1967) pp. 20 to 22):
(§5) • A, B=activity of components A and B in percent at a dosage of a and b g of ai/ha (=gramm of active substance per hectare), respectively. • E=expected value in % at a dosage of a+b g of ai/ha.
(§6) The combinations according to the invention of herbicides from group (A) with herbicides from group (B) were tested on a broad spectrum of important harmful plants (weed grasses, broad-leaved weeds/Cyperaceae) and useful plants: Triticum aestivum (TRZAS), Stellaria media (STEME), Lolium multiflorum (LOLMU), Veronica persica (VERPE), Alopecurus myosuroides (ALOMY), Matricaria inodora (MATIN), Brassica napus (BRSNW), Viola tricolor (VIOTR), Avena fatua (AVEFA), Amaranthus retroflexus (AMARE), Zea mays (ZEAMX), Pharbitis purpurea (PHBPU), Setaria viridis (SETVI), Fallopia (ex Polygonum) convolvulus (POLCO), Echinochloa crus-galli (ECHCG), Abuthilon theophrasti (ABUTH), Cyperus esculentus (CYPES), Oryza sativa (ORYSA).
(§7) Of particular interest are the results shown in the tables (Tab.) below, where the following key is used: • (1) EPPO code (former Bayer code) for the treated plant (see above) • (2) Time of scoring: DAT (days after treatment) • (3) Component A tested (identifying number) • (4) Component B tested (identifying number) • (5) Dosage component A [g of ai/ha] • (6) Dosage component B [g of ai/ha] • (7) % activity found • (8) E value (calculated according to Colby; see above) • (9) Comments: “SYNERGY”=synergistic interaction (E value<% activity found); “SAFENING”=safener action on useful plant (E value>% activity found)

Experiment [2] concerns Matricaria inodora (MATIN). As to the kind of experiment: Post-emergence action against weeds, greenhouse pot test, visual scoring. The following applies: 21 DAT. As to the method: as §1, §2, §3, §4, §5, §6, §7
A further experiment deals with Viola tricolor (VIOTR). The description is as above. Here is the method: as §1, §2, §3, §4, §5, §6, §7
The next experiment concerns Setaria viridis (SETVI). Described as above. As to the method:
as §1, §2, §3, §4, §5, §6, §7

The test system of experiment [3] is Fallopia (ex Polygonum) convolvulus (POLCO). The description is as above. The following applies: 10 DAT, component B 150 g of ai/ha. As to the method:
as §1, §2, §3, §4, §5, §6, §7

The next experiment deals with Avena fatua (AVEFA). The description is as above. Here is the method: as §1, §2, §3, §4, §5, §6, §7
Experiment [4] has as its system Cyperus esculentus (CYPES). The experiment is described as above. Here is the method:
as §1, §2, §3, §4, §5

Another experiment has as its system Oryza sativa (ORYSA). As to the kind of experiment: Post-emergence action, greenhouse pot test, visual scoring. The following applies: 21 DAT, component B 150 g of ai/ha. Here is the method:
as §1, §2, §3, §4, §5, §6, §7

The subject of the next experiment is Zea mays (ZEAMX). The experiment is described as above. Here is the method:
as §1, §2, §3, §4, §5, §6, §7

Experiment [5] relates to Alopecurus myosuroides (ALOMY). As to the kind of experiment: Post-emergence action against weeds, greenhouse pot test, visual scoring. The following applies: 21 DAT, component B 40 g of ai/ha. As to the method: as §1, §2, §3, §4, §5, §6, §7
[6] abbreviates: 10 DAT, component B 50 g of ai/ha.
Setting [7] is: 21 DAT, component B 150 g of ai/ha.
Where [8] appears, read: 21 DAT, component B 50 g of ai/ha.
[9] abbreviates: 21 DAT, component B 40 g of ai/ha.
The mark [10] stands for this setting: 21 DAT, component B 120 g of ai/ha.

Turning to `COc1nc(OC)nc(C(=O)c2cccc(F)c2N(C)S(=O)(=O)C(F)F)n1` [A-1], in experiment [1] (21 DAT, component A 12 g of ai/ha, Table 16), the “% activity found” value is on record as 0%.

`N#Cc1cc(Br)c(O)c(Br)c1` [B1-1, 3,5-dibromo-4-hydroxybenzonitrile]: the “% activity found” value in experiment [2] (component B 150 g of ai/ha) is recorded as 70%; in experiment [2] (component B 150 g of ai/ha, Table 9), 60%; with Viola tricolor (VIOTR) (setting [6]) it was 20%; with Viola tricolor (VIOTR) (setting [7]) it was 20%; with Setaria viridis (SETVI) (setting [6]), 20%; with Setaria viridis (SETVI) (setting [8]), 20%. The “% activity found” value with Setaria viridis (SETVI) (setting [7]) stood at 20%; in [3], 10%; in the experiment with Avena fatua (AVEFA) (setting [6]), 0%; in experiment [4] (setting [6]), 0%; in [4] (setting [8]), 0%; in experiment [4] (setting [7]), 0%. Moreover, the “% activity found” value in the experiment on Oryza sativa (ORYSA) was determined as 0%; in [1] (setting [7]) it was 0%; in the experiment with Zea mays (ZEAMX) (setting [6]), 0%; with Zea mays (ZEAMX) (10 DAT, component B 150 g of ai/ha) it was 20%; in the experiment with Zea mays (ZEAMX) (setting [8]) it was 0%.

Regarding `C#CCN(C)c1c(C#N)cnn1-c1nn2c(c1Cl)CCCC2` [B1-4, 1-(3-chloro-4,5,6,7-tetrahydropyrazolo[1,5-a]pyridin-2-yl)-5-(methyl-2-propynylamino)-1H-pyrazole-4-carbonitrile], the “% activity found” value is on record as 30% in experiment [5]; 80% in experiment [2] (component B 120 g of ai/ha); 40% in the experiment with Avena fatua (AVEFA) (setting [9]); 40% in [4] (setting [10]); 40% in [1] (10 DAT, component B 40 g of ai/ha); 60% in experiment [1] (10 DAT, component B 120 g of ai/ha). Further, the “% activity found” value in experiment [1] (setting [9]) amounted to 30%; in [1] (setting [10]), 60%.

These data come from patent US20100093541A1, “HERBICIDE COMBINATION COMPRISING DIMETHOXYTRIAZINYL SUBSTITUTED DIFLUOROMETHANESULFONYLANILIDES” (BAYER CROPSCIENCE AG, priority 2008, published 2010).
